According to the supplement of paper PMC10307832:

Key:
Test in all cases: relative viability (nuclei count vs DMSO), 5 days (fraction); higher = more cells survive
EMC-BAC-2 = test system: EMC-BAC-2
How it was run: (§1)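 Lung cancer cell lines were seeded in 1536-well plates and dosed by pin tool the next day, with either a single drug or a fixed anchor-drug dose combined with five library-drug doses (not always all listed) spaced in √10 steps. Five days later, one step fixed the cells and stained their nuclei (final 0.05% Triton X-100, 1% formaldehyde, 1 ug/ml Hoechst), and nuclei were counted on 4× images. Relative viability is the nuclei count in treated wells divided by the count in vehicle wells, and each value is the median of duplicate plates.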

EPLC-272H = test system: EPLC-272H
How it was run: as §1

H3255 = test system: H3255
How it was run: as §1

HOP-62 = test system: HOP-62
How it was run: as §1

LCLC-97TM1 = test system: LCLC-97TM1
How it was run: as §1

LXF-289 = test system: LXF-289
How it was run: as §1

NCI-H1563 = test system: NCI-H1563
How it was run: as §1

NCI-H1650 = test system: NCI-H1650
How it was run: as §1

NCI-H1915 = test system: NCI-H1915
How it was run: as §1

NCI-H1993 = test system: NCI-H1993
How it was run: as §1

NCI-H2009 = test system: NCI-H2009
How it was run: as §1

NCI-H2023 = test system: NCI-H2023
How it was run: as §1

NCI-H2085 = test system: NCI-H2085
How it was run: as §1

NCI-H2126 = test system: NCI-H2126
How it was run: as §1

NCI-H2342 = test system: NCI-H2342
How it was run: as §1

NCI-H2347 = test system: NCI-H2347
How it was run: as §1

NCI-H322M = test system: NCI-H322M
How it was run: as §1

NCI-H647 = test system: NCI-H647
How it was run: as §1

NCI-H661 = test system: NCI-H661
How it was run: as §1

NCI-H727 = test system: NCI-H727
How it was run: as §1

PC-14 = test system: PC-14
How it was run: as §1

SK-LU-1 = test system: SK-LU-1
How it was run: as §1

SW 1573 = test system: SW 1573
How it was run: as §1

`Oc1nc(-c2ccc(C(F)(F)F)cc2)nc2c1CSCC2` [XAV939] + N=C(N)NC(=N)NCCc1ccccc1 [Phenformin] (partner 250 µM) showed a relative viability (EMC-BAC-2; first compound 0.08 µM) of 0.551, a relative viability (EMC-BAC-2; first compound 0.253 µM) of 0.459 and a relative viability (EMC-BAC-2; first compound 0.8 µM) of 0.424. It also gave a relative viability (EMC-BAC-2; first compound 2.53 µM) of 0.288, a relative viability (EPLC-272H; first compound 0.08 µM) of 0.311 and a relative viability (EPLC-272H; first compound 0.253 µM) of 0.316. For the same compound, the relative viability (EPLC-272H; first compound 0.8 µM) was 0.308, the relative viability (EPLC-272H; first compound 2.53 µM) was 0.325 and the relative viability (H3255; first compound 0.08 µM) was 0.415. The relative viability (H3255; first compound 0.253 µM) was 0.397, the relative viability (H3255; first compound 0.8 µM) was 0.381 and the relative viability (H3255; first compound 2.53 µM) was 0.375. The relative viability (HOP-62; first compound 0.08 µM) was 0.8, the relative viability (HOP-62; first compound 0.253 µM) was 0.623 and the relative viability (HOP-62; first compound 0.8 µM) was 0.646. For the same compound, the relative viability (HOP-62; first compound 2.53 µM) was 0.593, the relative viability (LCLC-97TM1; first compound 0.08 µM) was 0.474 and the relative viability (LCLC-97TM1; first compound 0.253 µM) was 0.352. For the same compound, the relative viability (LCLC-97TM1; first compound 0.8 µM) was 0.434, the relative viability (LCLC-97TM1; first compound 2.53 µM) was 0.373 and the relative viability (LXF-289; first compound 0.08 µM) was 0.556. The relative viability (LXF-289; first compound 0.253 µM) was 0.48, the relative viability (LXF-289; first compound 0.8 µM) was 0.539 and the relative viability (LXF-289; first compound 2.53 µM) was 0.546. For the same compound, the relative viability (NCI-H1563; first compound 0.08 µM) was 0.616, the relative viability (NCI-H1563; first compound 0.253 µM) was 0.681 and the relative viability (NCI-H1563; first compound 0.8 µM) was 0.594. For the same compound, the relative viability (NCI-H1563; first compound 2.53 µM) was 0.636, the relative viability (NCI-H1650; first compound 0.08 µM) was 0.499 and the relative viability (NCI-H1650; first compound 0.253 µM) was 0.456. For the same compound, the relative viability (NCI-H1650; first compound 0.8 µM) was 0.373, the relative viability (NCI-H1650; first compound 2.53 µM) was 0.348 and the relative viability (NCI-H1915; first compound 0.08 µM) was 0.384. It also gave a relative viability (NCI-H1915; first compound 0.253 µM) of 0.258, a relative viability (NCI-H1915; first compound 0.8 µM) of 0.377 and a relative viability (NCI-H1915; first compound 2.53 µM) of 0.369. The relative viability (NCI-H1993; first compound 0.08 µM) was 0.479, the relative viability (NCI-H1993; first compound 0.253 µM) was 0.526 and the relative viability (NCI-H1993; first compound 0.8 µM) was 0.524. For the same compound, the relative viability (NCI-H1993; first compound 2.53 µM) was 0.511, the relative viability (NCI-H2009; first compound 0.08 µM) was 0.524 and the relative viability (NCI-H2009; first compound 0.253 µM) was 0.484. It also gave a relative viability (NCI-H2009; first compound 0.8 µM) of 0.421, a relative viability (NCI-H2009; first compound 2.53 µM) of 0.441 and a relative viability (NCI-H2023; first compound 0.08 µM) of 0.424. It also gave a relative viability (NCI-H2023; first compound 0.253 µM) of 0.391, a relative viability (NCI-H2023; first compound 0.8 µM) of 0.365 and a relative viability (NCI-H2023; first compound 2.53 µM) of 0.402. The relative viability (NCI-H2085; first compound 0.08 µM) was 0.741, the relative viability (NCI-H2085; first compound 0.253 µM) was 0.686 and the relative viability (NCI-H2085; first compound 0.8 µM) was 0.737. It also gave a relative viability (NCI-H2085; first compound 2.53 µM) of 0.653, a relative viability (NCI-H2126; first compound 0.08 µM) of 0.577 and a relative viability (NCI-H2126; first compound 0.253 µM) of 0.494. For the same compound, the relative viability (NCI-H2126; first compound 0.8 µM) was 0.48, the relative viability (NCI-H2126; first compound 2.53 µM) was 0.516 and the relative viability (NCI-H2342; first compound 0.08 µM) was 0.555. It also gave a relative viability (NCI-H2342; first compound 0.253 µM) of 0.518, a relative viability (NCI-H2342; first compound 0.8 µM) of 0.552 and a relative viability (NCI-H2342; first compound 2.53 µM) of 0.451. It also gave a relative viability (NCI-H2347; first compound 0.08 µM) of 0.396, a relative viability (NCI-H2347; first compound 2.53 µM) of 0.338 and a relative viability (NCI-H322M; first compound 0.08 µM) of 0.88. It also gave a relative viability (NCI-H322M; first compound 0.253 µM) of 0.716, a relative viability (NCI-H322M; first compound 0.8 µM) of 0.625 and a relative viability (NCI-H322M; first compound 2.53 µM) of 0.578. For the same compound, the relative viability (NCI-H647; first compound 0.08 µM) was 0.553, the relative viability (NCI-H647; first compound 0.253 µM) was 0.438 and the relative viability (NCI-H647; first compound 0.8 µM) was 0.61. For the same compound, the relative viability (NCI-H647; first compound 2.53 µM) was 0.28, the relative viability (NCI-H661; first compound 0.08 µM) was 0.277 and the relative viability (NCI-H661; first compound 0.253 µM) was 0.272. It also gave a relative viability (NCI-H661; first compound 0.8 µM) of 0.281, a relative viability (NCI-H661; first compound 2.53 µM) of 0.267 and a relative viability (NCI-H727; first compound 0.08 µM) of 0.732. It also gave a relative viability (NCI-H727; first compound 0.253 µM) of 0.353, a relative viability (NCI-H727; first compound 0.8 µM) of 0.635 and a relative viability (NCI-H727; first compound 2.53 µM) of 0.542. For the same compound, the relative viability (PC-14; first compound 0.08 µM) was 0.69, the relative viability (PC-14; first compound 0.253 µM) was 0.592 and the relative viability (PC-14; first compound 0.8 µM) was 0.629. The relative viability (PC-14; first compound 2.53 µM) was 0.555, the relative viability (SK-LU-1; first compound 0.08 µM) was 0.548 and the relative viability (SK-LU-1; first compound 0.253 µM) was 0.513. It also gave a relative viability (SK-LU-1; first compound 0.8 µM) of 0.447, a relative viability (SK-LU-1; first compound 2.53 µM) of 0.556 and a relative viability (SW 1573; first compound 0.08 µM) of 0.483. It also gave a relative viability (SW 1573; first compound 0.253 µM) of 0.398, a relative viability (SW 1573; first compound 0.8 µM) of 0.369 and a relative viability (SW 1573; first compound 2.53 µM) of 0.37.
